Measured values as given in PubChem BioAssay (NCI).
Where “and” joins values, the source holds several entries; their conditions need not be identical. Identical values can stand only once.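 Each compound was tested at five concentrations against cells in 96-well plates for 48 hours. The concentration for 50% growth inhibition is given as GI50. TGI: total growth inhibition.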

Experiments:
Test in all cases: inhibition of tumour cell growth, NCI panel, 48 h
HS 578T breast = tested on: HS 578T breast
RPMI-8226 leukemia = tested on: RPMI-8226 leukemia
HL-60(TB) leukemia = tested on: HL-60(TB) leukemia
HCC-2998 colon = tested on: HCC-2998 colon
TK-10 renal = tested on: TK-10 renal
SK-OV-3 ovarian = tested on: SK-OV-3 ovarian
SN12C renal = tested on: SN12C renal
NCI/ADR-RES ovarian = tested on: NCI/ADR-RES ovarian
MCF7 breast = tested on: MCF7 breast
M14 melanoma = tested on: M14 melanoma

| Structure (SMILES) | GI50 (HS 578T breast) | TGI (HS 578T breast) | GI50 (RPMI-8226 leukemia) | TGI (RPMI-8226 leukemia) | GI50 (HL-60(TB) leukemia) | TGI (HL-60(TB) leukemia) | GI50 (HCC-2998 colon) | TGI (HCC-2998 colon) | GI50 (TK-10 renal) | TGI (TK-10 renal) | GI50 (SK-OV-3 ovarian) | TGI (SK-OV-3 ovarian) | GI50 (SN12C renal) | TGI (SN12C renal) | GI50 (NCI/ADR-RES ovarian) | TGI (NCI/ADR-RES ovarian) | GI50 (MCF7 breast) | TGI (MCF7 breast) | GI50 (M14 melanoma) | TGI (M14 melanoma) |
| --- | --- | --- | --- | --- | --- | --- | --- | --- | --- | --- | --- | --- | --- | --- | --- | --- | --- | --- | --- | --- |
| CC(C)(CO)N=Cc1ccccc1[O-].CC(C)(CO)N=Cc1ccccc1[O-].[Co+2] | > 100 µM | > 100 µM | 30.2 µM | > 93 µM | 11.8 µM | 79.4 µM | 75.4 µM | > 100 µM | 81.3 µM | > 100 µM | > 100 µM | > 100 µM | > 96.6 µM | > 100 µM | > 100 µM | > 100 µM | 27.3 µM | > 100 µM | 38.7 µM | > 100 µM |
| Nc1ncnc2c1c(-c1ccc(Oc3ccccc3)cc1)nn2C[C@@H]1SSC[C@@H]1O | 2.02 µM | 11.6 µM | 2.86 µM | 14.6 µM | 0.576 µM | 7.89 µM | 0.479 µM | 14.8 µM | 0.705 µM | 2.75 µM | 0.498 µM | 3.71 µM | 0.762 µM | 11 µM | 1.05 µM | 7.8 µM | 0.129 µM | 1.31 µM | 0.0212 µM | 0.0462 µM |
| C1=C2CNCC3=Cc4ccc5ccccc5c4OC23Oc2c1ccc1ccccc21 | 2.24 µM | 10.4 µM | 5.44 µM | 65.3 µM | 2.69 µM | 7.68 µM | 3.99 µM | 19.7 µM | 9.08 µM | 27.4 µM | 3.41 µM | 12.8 µM | 4.22 µM | 20.1 µM | 2.1 µM | 6.06 µM | 2.83 µM | 12.7 µM | 2.17 µM | 5.08 µM |
| CC[C@H](C)[C@H](NC(=O)[C@H]1CCCCN1C)C(=O)N(C)[C@H](C[C@@H](OC(C)=O)c1nc(C(=O)N[C@@H](Cc2ccccc2)C[C@H](C)C(=O)OC)cs1)C(C)C | 0.000504 µM and 0.0025 µM | 6.9 µM |  | 8.97 µM | 0.000249 µM and < 0.0025 µM | 0.000743 µM and < 0.0025 µM | 0.00032 µM and 0.0025 µM | > 25 µM | 0.0254 µM |  | 0.000264 µM and 0.0025 µM | > 25 µM | 0.00076 µM and 0.0025 µM | > 25 µM | 0.00772 µM |  |  | > 25 µM | 0.000331 µM and < 0.0025 µM | < 0.0025 µM |
| Cn1cnc([N+](=O)[O-])c1Sc1nc(N)nc2nc[nH]c12 | 14.5 µM | > 100 µM | 3.52 µM | > 94 µM | 5.69 µM | > 100 µM | 3.79 µM | > 66.3 µM | 5.75 µM | > 100 µM | 0.727 µM | > 100 µM | 6.7 µM | > 100 µM | 2.17 µM | > 100 µM | 2.47 µM | > 100 µM | 1.28 µM | > 100 µM |
| CN(C)C(=O)SC1=C(c2c(Cl)cccc2Cl)C(=O)c2ccccc21 | 20 µM | > 75.5 µM | 2.2 µM | 5.84 µM | 2.84 µM | 6.53 µM | 15.6 µM | 29.2 µM | 3.5 µM | 9.64 µM | 18.6 µM | 36.5 µM | 6.18 µM | 17.7 µM | 9.42 µM | 25.8 µM | 2.51 µM | 7.73 µM | 3.03 µM | 7.79 µM |
| CCc1cccc(CC)c1/C=C/c1cncc(C(=O)NC)c1 | 7.65 µM | > 25 µM | 9.46 µM | > 25 µM | > 13.6 µM | > 23.8 µM | 11.2 µM | > 25 µM | > 18.2 µM | > 25 µM | 8.75 µM | > 25 µM | 10.8 µM | > 25 µM | 6.71 µM | > 25 µM | 7.74 µM | > 25 µM | 6.57 µM | 18.8 µM |
| CC(=O)Oc1ccc(C2(c3ccc(OC(C)=O)cc3)C(=O)Nc3ccccc32)cc1 | 0.0651 µM and 0.153 µM | 0.484 µM and 0.7 µM | 20.5 µM and 17.6 µM | > 93.2 µM | 15.1 µM and 30.9 µM | > 71.9 µM | 29.7 µM and 23.1 µM | > 100 µM | 3.14 µM and 17.6 µM | > 100 µM | 31.8 µM and 58.9 µM | > 100 µM | 0.202 µM and 0.283 µM | > 68.3 µM | 1.16 µM and 1.8 µM | > 100 µM | 0.229 µM and 0.278 µM | > 49.3 µM | 34.4 µM and 38.2 µM | > 100 µM |
| O=C(CCN1CCCC1)Nc1ccc2c(Nc3ccccc3)c3ccccc3nc2c1 | 1.09 µM | 3.28 µM | 0.48 µM | 1.65 µM | 0.264 µM | 1.61 µM | 0.733 µM | 2.29 µM | 1.28 µM | 3.78 µM | 0.651 µM | 3.59 µM | 0.306 µM | 1.81 µM | 1.84 µM | 7.22 µM | 0.0221 µM | 1.77 µM | 1.13 µM | 2.69 µM |
| CN(C)C/C=C/C(=O)Nc1ccc(C(=O)N2CCC[C@@H](Nc3ncc(Cl)c(-c4c[nH]c5ccccc45)n3)C2)cc1 | 0.214 µM | 1.45 µM | 0.422 µM | 3.83 µM | 0.0353 µM | 0.173 µM | 0.107 µM | 1.2 µM | 2.31 µM | 12.9 µM | 0.395 µM | 12.4 µM | 0.21 µM | 9.29 µM | 32.8 µM | > 100 µM | 0.0427 µM | 7.16 µM | 0.359 µM | 2.16 µM |
| CCCn1cnc2c(SCc3ccccc3)nc(N)nc21 | > 100 µM | > 100 µM | 41.6 µM | > 100 µM | 65.3 µM | > 100 µM | > 100 µM | > 100 µM | 80.5 µM | > 100 µM | > 100 µM | > 100 µM | > 100 µM | > 100 µM | 63.2 µM | > 100 µM | > 100 µM | > 100 µM | > 100 µM | > 100 µM |
| Cn1cc(CO)c2ccccc21 | 38.5 µM | > 100 µM | 99.9 µM | > 100 µM | 32.5 µM | > 100 µM | > 100 µM | > 100 µM | > 100 µM | > 100 µM | 77.5 µM | > 100 µM | 50.9 µM | > 100 µM | 27.1 µM | > 100 µM | 26.9 µM | > 100 µM | 31.6 µM | > 100 µM |
